PubChem BioAssay (NCI)
Values joined by “and” are separate entries in the source; they are usually repeats but may differ in a detail not shown here. Equal entries are not always repeated.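 Growth conditions: 96-well plates. Treatment: test compound, 48 hours, 5 concentrations. Analysis: linear interpolation between bracketing concentrations; unreached endpoints set to highest concentration. Here, GI50 denotes the concentration required for 50% inhibition of growth. At the TGI there is no net growth.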 Where a SMILES comes first, the peptide text is derived from it. [ ]: non-standard residue; d: D form. The star is where a group is joined. ξ: configuration not given here. dIva = CC[C@@](C)(N)C(=O)O; Aib = CC(C)(N)C(=O)O; ξP = O=C(O)C1CCCN1; βAla = NCCC(=O)O; X5 = OCN*

Assays:
Assay in all cases: NCI tumour cell line growth inhibition, 48 h
MALME-3M melanoma = tested on: MALME-3M melanoma
NCI-H460 lung = tested on: NCI-H460 lung
HCC-2998 colon = tested on: HCC-2998 colon
SNB-75 CNS = tested on: SNB-75 CNS
LOX IMVI melanoma = tested on: LOX IMVI melanoma
SF-295 CNS = tested on: SF-295 CNS
HS 578T breast = tested on: HS 578T breast
M14 melanoma = tested on: M14 melanoma
NCI-H522 lung = tested on: NCI-H522 lung
A498 renal = tested on: A498 renal

Structure (SMILES) | GI50 (MALME-3M melanoma) | TGI (MALME-3M melanoma) | GI50 (NCI-H460 lung) | TGI (NCI-H460 lung) [µM] | GI50 (HCC-2998 colon) | TGI (HCC-2998 colon) | GI50 (SNB-75 CNS) | TGI (SNB-75 CNS) | GI50 (LOX IMVI melanoma) | TGI (LOX IMVI melanoma) | GI50 (SF-295 CNS) | TGI (SF-295 CNS) | GI50 (HS 578T breast) | TGI (HS 578T breast) [µM] | GI50 (M14 melanoma) | TGI (M14 melanoma) [µM] | GI50 (NCI-H522 lung) | TGI (NCI-H522 lung) | GI50 (A498 renal) | TGI (A498 renal)
CC[C@@](C)(NC(=O)[C@H](C)NC(=O)CCNC(=O)C(C)(C)NC(=O)[C@H](C)NC(=O)[C@@H]1CCCN1C(=O)[C@@](C)(CC)NC(=O)[C@H](Cc1ccccc1)NC(=O)C1CCCN1C(=O)C(C)(C)NC(=O)C1CCCN1C(=O)C(C)(C)NC(C)=O)C(=O)NCCC(=O)N[C@@H](CC(C)C)C(=O)NC(C)(C)C(=O)NCCC(=O)N[C@@H](CC(C)C)C(=O)NC(C)(C)C(=O)NC(C)(C)C(=O)N[C@@H](CC(C)C)C(=O)NCCC(=O)NCO (some centres undefined) (Ac-[Aib][ξP][Aib][ξP]F[dIva]PA[Aib][βAla]A[dIva][βAla]L[Aib][βAla]L[Aib][Aib]L[βAla]-X5) | 0.0595 µM | 0.256 µM | 0.144 µM | 0.381 | 0.145 µM | 0.351 µM | 0.0608 µM | 0.307 µM | 0.208 µM | 0.428 µM | 0.0539 µM | 0.213 µM | 0.248 µM | 0.642 | 0.188 µM | 0.391 | 0.0868 µM | 0.304 µM | 0.19 µM | 0.412 µM
CC(C)CC1NC(=O)C(C(C)C)NC(=O)CC(C)COC(=O)C(CC(C)C)N(C)C(=O)C(C(C)C)NC(=O)C(C(C)C)OC1=O (centres undefined) |  | > 50 µM |  | > 50 |  | > 50 µM |  | 30.2 µM |  | > 50 µM |  | > 50 µM |  | > 50 |  | > 50 |  | > 50 µM |  | > 50 µM
NS(=O)(=O)c1ccc(N=Nc2c(=O)[nH]c3ccc4[nH]cccc4c23)cc1 | 1.05 µM | 3.05 µM | 0.792 µM | > 25 | 0.398 µM | 2 µM | 0.404 µM | 1.3 µM | 0.304 µM | > 25 µM | 0.883 µM | > 25 µM | 0.575 µM | > 6.85 | 0.82 µM | 5.64 | 0.197 µM | 0.818 µM | 0.671 µM | 1.45 µM
CC1SC(c2cccc(Cl)c2)N(NC(=O)C(O)c2ccccc2)C1=O (centres undefined) | > 100 µM | > 100 µM | > 100 µM | > 100 | > 100 µM | > 100 µM | 79.1 µM | > 100 µM | > 100 µM | > 100 µM | > 100 µM | > 100 µM | > 100 µM | > 100 | > 100 µM | > 100 | > 100 µM | > 100 µM | > 100 µM | > 100 µM
CCCC(CCC)C(=O)O | > 100 µM | > 20000 µM | > 100 µM | > 20000 | > 100 µM | > 100 µM and 16700 µM | > 100 µM | > 100 µM and 18400 µM | > 100 µM | > 20000 µM | > 100 µM | > 20000 µM |  | > 20000 | 19900 µM | > 20000 | > 100 µM | > 20000 µM | > 100 µM | > 100 µM and 4830 µM
CN1C(=O)C(C)(C)Oc2c(-c3cn(C)c(=O)c4[nH]ccc34)cc(S(C)(=O)=O)cc21 | 1.1 µM | 25.8 µM | 2.29 µM | > 100 | 1.24 µM | 2.86 µM | 0.155 µM | 1.49 µM | 0.462 µM | 1.73 µM | 2.68 µM | > 100 µM | 0.425 µM | 6.71 | 0.727 µM | > 100 | 0.383 µM | 5 µM | 1.11 µM | 5.98 µM
NC(N)=NC(N)=NCc1ccco1 | 741 µM | > 1250 µM | 866 µM and 766 µM | > 1250 | > 1250 µM | > 1250 µM | > 1250 µM | > 1250 µM | 581 µM | > 1250 µM | 321 µM | > 1250 µM | > 1250 µM | > 1250 | > 1250 µM | > 1250 | > 1250 µM | > 1250 µM | 190 µM and > 1250 µM | > 1250 µM
C=CC(=O)Nc1cccc(Nc2nc(Nc3ccc(N4CCN(C(C)=O)CC4)cc3OC)ncc2C(F)(F)F)c1 | 8.88 µM and 3.09 µM | > 10 µM and 16.4 µM | 3.87 µM and 3.24 µM | > 100 | 2.58 µM and 4.62 µM | > 10 µM and 22.4 µM | 5.18 µM and 2.47 µM | > 10 µM and 15.3 µM | 2.71 µM and 3.04 µM | > 10 µM and 14.2 µM | 6.82 µM and 8.18 µM | > 10 µM and 23.1 µM | 3.73 µM and 3.36 µM | > 95.9 | 3.67 µM and 2.73 µM | > 100 | 0.484 µM and 0.506 µM | 6.73 µM and 7.66 µM | 2 µM and 0.802 µM | 6.01 µM and 2.94 µM
